What was measured:
intestinal epithelium = experiment: Histological analysis (hematoxylin and eosin staining) and colon damage score; format: in vivo, mice
Protocol: (§1) For five groups of 12 mice each (only 3 mice in the control), the experimental routine procedure frequently used in connection with the treatment of IBD was carried out, in which IBD is induced by administration of dextran sulfate sodium (DSS). This involved administering DSS in drinking water for five days (but not in the control group), and after that the particular test substance was administered orally. On the tenth day, the mice were sacrificed using CO2 and the colon was removed for examination.

[1] = tested on: IBD induced by administration of dextran sulfate sodium (DSS); experiment: Blood in stool, DSS-induced IBD in mice; format: in vivo; set-up: key to Blood in stool: + Blood in stool; − No blood in stool; conditions: for Blood in stool: DSS in drinking water for five days, test substance orally from the sixth day
Protocol: as §1, with “examination. The individual groups were as follows:” for “examination.”
Group 2: received only DSS.
Group 3: (GHC1) received DSS as described above and, from the sixth day, a clinoptilolite freed of heavy metals which was ground to a mean particle size of 3.5 μm and thus not in accordance with the invention.
Group 4: (GHC2) received, from the sixth day, the substance according to the invention.
Group 5: (5ASA) received, from the sixth day, sulfasalazine, a derivative of mesalazine, also termed 5-ASA.

[2] = tested on: IBD induced by administration of dextran sulfate sodium (DSS); experiment: Stool consistency (stool score), DSS-induced IBD in mice; format: in vivo; conditions: tenth day, FIG. 2
Protocol: as §1

TNF-α = TNF-α mRNA by RT-PCR in intestinal tissue homogenates; format: in vivo, mice; conditions: FIG. 10
Protocol: as §1, with “examination. The individual groups were as follows:” for “examination.”
To objectify and quantify the effects determined from the histological examinations, further analyses of biochemical inflammation markers (TNF-α/IL-6/IL-1β mRNA by means of RT-PCR, MPO activity) from tissue homogenates of the relevant intestinal segments were carried out.
Two further proinflammatory cytokines were examined; the results are shown in FIG. 9 (IL-6) and 10 (TNF-α). Said figures show: • 2expΔΔct=the rise in expression for a particular gene (1=1×, 2=2×, etc.); • Control=control group; • DSS1.5=group 2; • DSS1.5+GHC1=group 3; • DSS1.5+GHC2=(inventive) group 4; • DSS1.5+5ASA=group 5; • **=a very significant difference in relation to the control group (control); • #=a significant difference in relation to the DDS1.5 group (group 2); • ##=a very significant difference in relation to the DDS1.5 group (group 2).

For `O=C(O)c1cc(/N=N/c2ccc(S(=O)(=O)Nc3ccccn3)cc2)ccc1O` [5ASA, sulfasalazine], the “Healing of the intestinal epithelium (histology)” value (intestinal epithelium; hematoxylin and eosin staining, day 10, FIG. 5) was “distinctly improved healing of the intestinal epithelium”, the Colon damage score (intestinal epithelium; histo(patho)logical examinations, FIG. 6) was “good convergence” and the Blood in stool ([1]; day 0) was “−”. The Blood in stool ([1]; day 2) was “−”, the Blood in stool ([1]; day 4) was “−” and the Blood in stool ([1]; day 6) was “+”. For the same compound, the Blood in stool ([1]; day 8) was “−”, the Blood in stool ([1]; day 10) was “−” and the “Days on which blood in stool was exhibited” value ([1]; text summary of Table I) was “only on the sixth day”. For the same compound, the “Stool consistency, return to normal range” value [2] was “completely within the normal range” and the “TNF-α expression (2expΔΔct)” value (TNF-α) was “does not show a positive effect”.
